Where a name gives a salt, the structure may show the parent alone.
Tests used:
[1] = system: PAF-Induced Platelet Aggregation; assay: Inhibitory Action on PAF-Induced Platelet Aggregation; assay type: cell-based, New Zealand white male rabbits; conditions: Oryctolagus cuniculus, Drug Concentration: 3 × 10^-5 M, rabbit PRP
Description: Blood was collected from the hearts of conscious New Zealand white male rabbits weighing 2 to 3 kg using citric acid as an anticoagulant (one volume part of 3.15% citric acid per 9 volume parts of the whole blood). The blood was subjected to a centrifuge at 800 rpm for ten minutes to obtain platelet rich plasma (PRP). The remaining blood after collecting the PRP was subjected to a centrifuge at 3000 rpm for ten minutes to obtain platelet poor plasma (PPP). PRP was diluted with PPP, and the number of platelets was adjusted to 500,000/μl. Platelet aggregation was examined by means of turbidimetry [Born, Nature, 194, 927-929 (1962)] with 8 channel aggregometer (NBS HEMA TRACER 6 Nikoh, Bioscience, Japan). More concretely, PRP (250 μl) was kept warm (37° C.) for three minutes in a silicon-processed cuvette, to which was added a test sample (25 μl) dissolved in a physiological saline or in 10mM dimethylsulfoxide followed by dilution with a physiological saline. Two minutes later, PAF (25 μl, 3×10^-9 -1×10^-8 M), dissolved in a physiological saline, was added and then the maximum aggregation rate was determined. As the control, physiological saline without test sample was added to the cuvette, and the inhibitory rate thereon was determined.

[2] = system: PAF-Induced Hypotension; assay: Inhibitory Action on PAF-Induced Hypotension; assay type: in vivo, SD (Jcl) male rats; conditions: po, rat; for inhibition in vivo at 30 mg/kg: 30 mg/kg p.o.; for inhibition in vivo at 3 mg/kg: 3 mg/kg p.o.; for inhibition in vivo at 10 mg/kg: 10 mg/kg p.o.
Description: SD (Jcl) male rats of 6 to 8 week old were subjected to the experiment. After fasting overnight, the rats were cannulated into the femoral artery and vein under anesthesia with pentobarbital. A transducer (MPU-0.5-290O-III, TOYO BALDWIN, Japan) was connected with the artery cannula, and blood pressure was continuously measured. […] The rate of inhibition of lowering of blood pressure after administration of the test samples against the control was evaluated.

COc1ccc2c(c1)CCC(C(=O)N1CCN(Cc3cc(OC)c(OC)c(OC)c3)CC1)=C2 [Example 1, 1-(7-methoxy-1,2-dihydro-3-naphthoyl)-4-(3,4,5-trimethoxybenzyl)piperazinehydrochloride]
inhibition at 30 µM [1]: 100%

COc1cc2c(cc1OC)CCC(C(=O)N1CCN(Cc3cc(OC)c(OC)c(OC)c3)CC1)=C2 [Example 5, 1-(6,7-dimethoxy-1,2-dihydro-3-naphthoyl)-4-(3,4,5-trimethoxybenzyl)piperazine hydrochloride]
inhibition at 30 µM [1]: 100% | inhibition in vivo at 30 mg/kg ([2]; after 1 hr): 77% | inhibition in vivo at 30 mg/kg ([2]; after 2 hrs): 75% | inhibition in vivo at 30 mg/kg ([2]; after 4 hrs): 49%

COc1cc(CN2CCN(C(=O)c3ccc4ccccc4c3)CC2)cc(OC)c1OC [Example 7, 1-(2-naphthoyl)-4-(3,4,5-trimethoxybenzyl)piperazine hydrochloride]
inhibition at 30 µM [1]: 95%

COc1cc(CN2CCN(C(=O)c3cccc4ccccc34)CC2)cc(OC)c1OC [Example 8, 1-(1-naphthoyl)-4-(3,4,5-trimethoxybenzyl)piperazine hydrochloride]
inhibition at 30 µM [1]: 84%

COc1ccc2cc(C(=O)N3CCN(Cc4cc(OC)c(OC)c(OC)c4)CC3)ccc2c1 [Example 9, 1-(6-methoxy-2-naphthoyl)-4-(3,4,5-trimethoxybenzyl)piperazine hydrochloride]
inhibition at 30 µM [1]: 87%

COc1cc(CN2CCN(C(=O)C3=Cc4cc(OC)c(OC)c(OC)c4CC3)CC2)cc(OC)c1OC [Example 10, 1-(6,7,8-trimethoxy-1,2-dihydro-3-naphthoyl)-4-(3,4,5-trimethoxybenzyl)piperazine hydrochloride]
inhibition at 30 µM [1]: 87%

COc1cc(CN2CCN(C(=O)c3ccc4c(OC)c(OC)c(OC)cc4c3)CC2)cc(OC)c1OC [Example 12, 1-(3,4,5-trimethoxybenzyl)-4-(5,6,7-trimethoxy)-2-naphthoyl)piperazine hydrochloride]
inhibition at 30 µM [1]: 100%

CCCCOc1ccc2c(c1)CCC(C(=O)N1CCN(Cc3cc(OC)c(OC)c(OC)c3)CC1)=C2 [Example 15, 1-(7-butoxy-1,2-dihydro-3-naphthoyl)-4-(3,4,5-trimethoxybenzyl)piperazine hydrochloride]
inhibition at 30 µM [1]: 100%

CCCCOc1ccc2cc(C(=O)N3CCN(Cc4cc(OC)c(OC)c(OC)c4)CC3)ccc2c1 [Example 17, 1-(6-butoxy-2-naphthoyl)-4(3,4,5-trimethoxybenzyl)piperazine hydrochloride]
inhibition at 30 µM [1]: 97%

COc1cc2ccc(C(=O)N3CCN(Cc4cc(OC)c(OC)c(OC)c4)CC3)cc2cc1OC [Example 21, 1-(6,7-dimethoxy-2-naphthoyl)-4-(3,4,5-trimethoxybenzyl)piperazinehydrochloride]
inhibition at 30 µM [1]: 93%

CCCCOc1cc2ccc(C(=O)N3CCN(Cc4cc(OC)c(OC)c(OC)c4)CC3)cc2cc1OCCCC [Example 23, 1-(6,7-dibutoxy-2-naphthoyl)-4-(3,4,5-trimethoxybenzyl)piperazine hydrochloride]
inhibition at 30 µM [1]: 100%

COc1cc2ccccc2cc1C(=O)N1CCN(Cc2cc(OC)c(OC)c(OC)c2)CC1 [Example 24, 1-(3-methoxy-2-napththoyl)-4-(3,4,5-trimethoxybenzyl)piperazine hydrochloride]
inhibition at 30 µM [1]: 100%

COc1cc(CN2CCN(C(=O)c3ccc4c(c3)C(=O)c3ccccc3C4=O)CC2)cc(OC)c1OC [Example 26, 1-(2-anthraquinonylcarbonyl)-4-(3,4,5-trimethoxybenzyl)piperazine]
inhibition at 30 µM [1]: 91%

COc1cc(CN2CCN(C(=O)C3=Cc4cc(OCc5ccccc5)c(OCc5ccccc5)cc4CC3)CC2)cc(OC)c1OC [Example 28, 1-(6,7-dibenzyloxy-1,2-dihydro-3-naphthoyl)-4-(3,4,5-trimethoxybenzyl)piperazine hydrochloride]
inhibition at 30 µM [1]: 87%

COc1cc(CN2CCN(C(=O)C3=Cc4ccc(OCc5ccccc5)cc4CC3)CC2)cc(OC)c1OC [Example 32, 1-(7-benzyloxy-1,2-dihydro-3-naphthoyl)-4-(3,4,5-trimethoxybenzyl)piperazine hydrochloride]
inhibition at 30 µM [1]: 100%

COc1cc(CN2CCN(C(=O)C3=Cc4cc(OC(C)=O)c(OC(C)=O)cc4CC3)CC2)cc(OC)c1OC [Example 36, 1-(6,7-diacetyloxy-1,2-dihydro-3-naphthoyl)-4-(3,4,5-trimethoxybenzyl)piperazine fumarate]
inhibition at 30 µM [1]: 86%

COc1cc(CN2CCN(C(=O)c3ccc4c(c3)C(=O)c3ccccc3-4)CC2)cc(OC)c1OC [Example 38, 1-(9-oxo-2-fluorenylcarbonyl)-4-(3,4,5-trimethoxybenzyl)piperazine]
inhibition at 30 µM [1]: 85%

COc1cc(CN2CCN(C(=O)c3ccc4c(c3)C(O)c3ccccc3-4)CC2)cc(OC)c1OC (centres unmarked) [Example 39, 1-(9-hydroxy-2-fluorenylcarbonyl)-4-(3,4,5-trimethoxybenzyl)piperazine hydrochloride]
inhibition at 30 µM [1]: 100% | inhibition in vivo at 30 mg/kg ([2]; after 1 hr): 70% | inhibition in vivo at 30 mg/kg ([2]; after 2 hrs): 64% | inhibition in vivo at 30 mg/kg ([2]; after 4 hrs): 47%

COc1cc2ccc(C(=O)N3CCN(Cc4cc(OC)c(OC)c(OC)c4)CC3)c(O)c2cc1OC [Example 41, 1-(6,7-dimethoxy-1-hydroxy-2-naphthoyl)-4-(3,4,5-trimethoxybenzyl)piperazine hydrochloride]
inhibition at 30 µM [1]: 97%

COc1cc(CN2CCN(C(=O)C3=Cc4ccc(OC)c(OC)c4CCC3)CC2)cc(OC)c1OC [Example 43, 1-(3,4-dimethoxy-6,7-dihydro-5H-benzocyclohepten-8-ylcarbonyl)-4-(3,4,5-trimethoxybenzyl)piperazine hydrochloride]
inhibition at 30 µM [1]: 89%

COc1cc2c(cc1OC)CCCC(C(=O)N1CCN(Cc3cc(OC)c(OC)c(OC)c3)CC1)=C2 [Example 49, 1-(2,3-dimethoxy-6,7-dihydro-5H-benzocyclohepten-8-ylcarbonyl)-4-(3,4,5-trimethoxybenzyl)piperazine hydrochloride]
inhibition at 30 µM [1]: 100% | inhibition in vivo at 30 mg/kg ([2]; after 1 hr): 94% | inhibition in vivo at 30 mg/kg ([2]; after 2 hrs): 97% | inhibition in vivo at 30 mg/kg ([2]; after 4 hrs): 88%

COc1cc2c(cc1OC)CCC(C(=O)N1CCN(C(=O)c3cc(OC)c(OC)c(OC)c3)CC1)=C2 [Example 56, 1-(6,7-dimethoxy-1,2-dihydro-3-naphthoyl)-4-(3,4,5-trimethoxybenzoyl)piperazine]
inhibition at 30 µM [1]: 100% | inhibition in vivo at 30 mg/kg ([2]; after 1 hr): 100% | inhibition in vivo at 30 mg/kg ([2]; after 2 hrs): 97% | inhibition in vivo at 30 mg/kg ([2]; after 4 hrs): 88%

CCOc1cc2c(cc1OCC)CCC(C(=O)N1CCN(Cc3cc(OC)c(OC)c(OC)c3)CC1)=C2 [Example 58, 1-(6,7-diethoxy-1,2-dihydro-3-naphthoyl)-4-(3,4,5-trimethoxybenzyl)piperazine hydrochloride]
inhibition at 30 µM [1]: 100% | inhibition in vivo at 30 mg/kg ([2]; after 1 hr): 88% | inhibition in vivo at 30 mg/kg ([2]; after 2 hrs): 95% | inhibition in vivo at 30 mg/kg ([2]; after 4 hrs): 65%

COc1cc2c(cc1OC)CC(C(=O)N1CCN(C(=O)c3cc(OC)c(OC)c(OC)c3)CC1)=C2 [Example 61, 1-(5,6-dimethoxy-1-H-inden-2-ylcarbonyl)-4-(3,4,5-trimethoxybenzoyl)piperazine]
inhibition in vivo at 30 mg/kg ([2]; after 1 hr): 86% | inhibition in vivo at 30 mg/kg ([2]; after 2 hrs): 82% | inhibition in vivo at 30 mg/kg ([2]; after 4 hrs): 74%

CCOc1cc2c(cc1OCC)CCCC(C(=O)N1CCN(C(=O)c3cc(OC)c(OC)c(OC)c3)CC1)=C2 [Example 73, 1-(2,3-diethoxy-6,7-dihydro-5H-benzocyclohepten-8-ylcarbonyl)-4-(3,4,5-trimethoxybenzoyl)piperazine]
inhibition in vivo at 30 mg/kg ([2]; after 1 hr): 98% | inhibition in vivo at 30 mg/kg ([2]; after 2 hrs): 98% | inhibition in vivo at 30 mg/kg ([2]; after 4 hrs): 96%

CCOc1c(OC)cc(C(=O)N2CCN(C(=O)C3=Cc4cc(OC)c(OC)cc4CCC3)CC2)cc1OC [Example 75, 1-(2,3-dimethoxy-6,7-dihydro-5H-benzocyclohepten-8-ylcarbonyl)-4-(3,5-dimethoxy-4-ethoxy-benzoyl)piperazine]
inhibition in vivo at 30 mg/kg ([2]; after 1 hr): 61% | inhibition in vivo at 30 mg/kg ([2]; after 2 hrs): 54% | inhibition in vivo at 30 mg/kg ([2]; after 4 hrs): 61%

COc1cc2c(cc1OC)CCCC(C(=O)N1CCN(C(=S)c3cc(OC)c(OC)c(OC)c3)CC1)=C2 [Example 76, 1-(2,3-dimethoxy-6,7-dihydro-5H-benzocyclohepten-8-ylcarbonyl)-4-(3,4,5-trimethoxythiobenzoyl)piperazine]
inhibition in vivo at 3 mg/kg ([2]; after 1 hr): 72% | inhibition in vivo at 3 mg/kg ([2]; after 2 hrs): 69% | inhibition in vivo at 3 mg/kg ([2]; after 4 hrs): 60% | inhibition in vivo at 30 mg/kg ([2]; after 1 hr): 100% | inhibition in vivo at 30 mg/kg ([2]; after 2 hrs): 100% | inhibition in vivo at 30 mg/kg ([2]; after 4 hrs): 100%

COc1cc(C(=O)N2CCN(C(=O)C3=Cc4ccc(OC)c(OC)c4CCC3)CC2)cc(OC)c1OC [Example 78, 1-(3,4-dimethoxy-6,7-dihydro-5H-benzocyclohepten-8-ylcarbonyl)-4-(3,4,5-trimethoxybenzoyl)piperazine]
inhibition in vivo at 30 mg/kg ([2]; after 1 hr): 73% | inhibition in vivo at 30 mg/kg ([2]; after 2 hrs): 57% | inhibition in vivo at 30 mg/kg ([2]; after 4 hrs): 26%

COc1cc2c(cc1OC)CC(C(=O)N1CCN(C(=O)c3cc(OC)c(OC)c(OC)c3)CC1)CC2 (centres unmarked) [Example 79]
inhibition in vivo at 30 mg/kg ([2]; after 1 hr): 81% | inhibition in vivo at 30 mg/kg ([2]; after 2 hrs): 88% | inhibition in vivo at 30 mg/kg ([2]; after 4 hrs): 66%

COc1cc2c(cc1OC)CC(C(=O)N1CCN(C(=O)c3cc(OC)c(OC)c(OC)c3)CC1)CCC2 (centres unmarked) [Example 86, 1-(2,3-dimethoxy-5,6,7,8-tetrahydrobenzocyclohepten-6-ylcarbonyl)-4-(3,4,5-trimethoxy-benzoyl)piperazine]
inhibition in vivo at 10 mg/kg ([2]; after 1 hr): 90% | inhibition in vivo at 10 mg/kg ([2]; after 2 hrs): 92% | inhibition in vivo at 10 mg/kg ([2]; after 4 hrs): 92% | inhibition in vivo at 30 mg/kg ([2]; after 1 hr): 100% | inhibition in vivo at 30 mg/kg ([2]; after 2 hrs): 100% | inhibition in vivo at 30 mg/kg ([2]; after 4 hrs): 100%

From patent US4880809A, “1,4-disubstituted piperazines (or homopiperazines) as platelet-activating factor antagonists” (Takeda Chemical Industries, Ltd., priority 1987, dated 1989)
